Entries after “also recorded” stand apart in the source; their conditions may differ. Structures can show the parent of a compound that is named as a salt.
How the values were obtained:
[1] = test system: Sprague Dawley rats; experiment: Nociceptive thresholds in naïve animals (von Frey, radiant heat); format: in vivo, rat
Description: (§1) Animals were fully habituated and experiments performed blinded. Threshold for eliciting a withdrawal reflex to graded strength monofilament von Frey hairs (0.0174-20.9 g) was measured to assess mechanical allodynia. To measure cold allodynia, a drop of acetone was applied to the plantar hindpaw, and the time the animal spent licking, shaking or lifting the paw was measured (Tegeder et al., J Neurosci 24:1637-1645 (2004)). Paw withdrawal latency to radiant heat (lamp with 8 V, 50 W) assessed heat evoked pain (Ugo Basile).
(§2) DAHP was dissolved in 1:1 polyethylene glycol (PEG400) and 1×PBS, pH 7.4 (15 mg/ml) and administered i.p. or intrathecally (250 μg/kg/h; 5 μl/h). For all i.t. injections/infusions a spinal catheter (Recathco) was used and implanted as described (Kunz et al., Pain 110:409-418 (2004)). Infusions with an osmotic pump (Alzet). 6R-BH4 in ACSF was injected i.t. (10 μg, single 10 μl injection). N-acetyl-serotonin in 1×PBS pH 7.4 containing 3% ethanol was delivered by i.t. infusion (100 μg/kg/h; 5 μl/h). Control animals received the appropriate vehicle. All drugs from Sigma-Aldrich.

[2] = test system: cultured adult rat DRG neurons; experiment: Calcium imaging (fura-2) in cultured adult rat DRG neurons; format: cell-based
Description: Miniature EPSCs were recorded at −70 mV by whole cell patch clamp in adult rat transverse spinal cord slices (Baba et al., Mol Cell Neurosci 24:818-830 (2003)). Intracellular [Ca]I was measured fluorometrically (ΔF 340/380) in cultured adult DRG neurons loaded with fura-2. 6R-BH4 (0.3-10 μM), DEA-NONOate (50 μM), and L-NAME (10-100 μM) were applied using a multibarrel fast drug delivery system.

[3] = test system: Sprague Dawley rats; experiment: Spared nerve injury (SNI) model: mechanical (von Frey) and cold (acetone) allodynia; format: in vivo, rat; settings: SNI
Description: (§3) Adult male Sprague Dawley rats (150-200 g, Charles River Laboratories) were used. For the SNI model two branches of the sciatic nerve, the common peroneal and the tibial nerve, were ligated and sectioned distally. For the CCI model the sciatic nerve was constricted with three Dexon 4/0 ligatures. For the SNL model, the L5 spinal nerve was tightly ligated. All surgical procedures were under isoflurane anesthesia. For the Formalin test 50 μl of 5% formaldehyde solution were injected into a hindpaw and flinches were counted per minute up to 60 min. Paw inflammation was induced with 50 μl complete Freund's adjuvant (CFA) injected into a hindpaw. Nociceptive analysis was done blinded, and animals were fully habituated to the room and test cages. Mechanical allodynia was assessed with graded strength monofilament von Frey hairs (0.0174-20.9 gram, log scaled), cold allodynia with the acetone test and heat hyperalgesia with the Hargreaves test. Drugs (Sigma) were injected intraperitoneally or intrathecally through a spinal catheter, osmotic pumps were used for infusion. Control animals received vehicle. L4/5 DRG and spinal cord tissue was processed for QRT-PCR, Western blotting, in situ hybridization and immunofluorescence studies.
as §1, §2
Data are means ±SEM. The number of animals per group was 9-12. Areas under the “effect versus time” curves (AUC) were calculated using the linear trapezoidal rule and compared with Student's t-test or univariate analysis of variance (ANOVA) with subsequent t-tests employing a Bonferroni alpha-correction for multiple comparisons. All other data were analyzed with univariate ANOVA or ANOVA for repeated measurements. P at 0.05 for all tests.

[4] = test system: Sprague Dawley rats; experiment: CFA-induced paw inflammation: thermal hyperalgesia (Hargreaves); format: in vivo, rat; settings: single dose 50 mg/kg i.p.; 50 mg/kg
Description: as §3, with “Drugs (Sigma) were injected intraperitoneally or intrathecally through a spinal catheter, osmotic pumps were used for infusion. Control animals received vehicle. L4/5 DRG and spinal cord tissue was processed for QRT-PCR, Western blotting, in situ hybridization and immunofluorescence studies.” left out
For the Formalin test 50 μl of 5% formaldehyde solution were injected into one hindpaw and flinches were counted per minute up to 60 min. […]
as §1
Data are means ±SEM. […] Areas under the “effect versus time” curves (AUC) were calculated using the linear trapezoidal rule and compared with Student's t-test or univariate analysis of variance (ANOVA) with subsequent t-tests employing a Bonferroni alpha-correction for multiple comparisons. All other data were analyzed with univariate ANOVA or ANOVA for repeated measurements. […]

[5] = test system: BH4 synthesis (GTP cyclohydrolase activity); experiment: Tissue concentrations of neopterin and biopterin in L4/5 DRGs (LC/MS-MS); format: in vivo, rat; settings: seven days after SNI
Description: Homogenized tissue was oxidized with iodine, and pteridines were extracted on Oasis MCX cartridges. Concentrations of total biopterin, neopterin, and the internal standard rhamnopterin were determined by LC/MS-MS. LC analysis under gradient conditions on a Nucleosil C8 column; MS-MS analyses on an API 4000 Q TRAP triple quadrupole mass spectrometer. Precursor-to-product ion transitions of m/z 236→192 for biopterin, m/z 252→192 for neopterin, m/z 265→192 for rhamnopterin were used for the MRM. Linearity from 0.1-50 ng/ml. The coefficient of correlation for all measured sequences was at least 0.99. The intra-day and inter-day variability was <10%.

[6] = Observation of general well-being, body weight, gait, activity; format: in vivo, rat; settings: 100 μg/kg/hr i.t. after SNI
[7] = test system: biopterin; experiment: Forskolin stimulation of whole blood from healthy volunteers: biopterin; format: cell-based, human; settings: 10 μM, 24 h
Description: FIGS. 14C-14F show the effect of forskolin on patient white blood cells. […] White bars unstimulated; grey after stimulation. […] Results represent means with SEM.

C[C@H](O)[C@H](O)[C@H]1CNc2nc(N)[nH]c(=O)c2N1 [6R-BH4, (6R)-5,6,7,8-tetrahydrobiopterin dihydrochloride]
latency of pain production ([1]; rat, in vivo): < 30 min | recorded cells with increased intracellular calcium ([2]; 0.3-10 μM, n=95): 67%

CCN(CC)/[N+]([O-])=N/O.CCNCC [DEA-NONOate]
intracellular calcium increase ([2]; 50 μM, n=32, compared with BH4): produced similar increases

COC(=O)[C@@H](N)CCCNC(=N)N[N+](=O)[O-] [L-NAME]
mechanical and cold allodynia ([3]; 25 mg/kg i.p., 25 mg/kg): significant effects for von Frey and acetone responses; also recorded: reduced SNI-evoked mechanical and cold allodynia | BH4 mediated increase in [Ca2+]I ([2]; 50 μM): significantly reduced the BH4 mediated increase | DEA-NONOate induced increase of [Ca2+]I ([2]; L-NAME 50 μM, DEA-NONOate 50 μM): has no effect | reduction of the BH4 effect on intracellular calcium ([2]; n=29, p<0.01): 47±4%

CC(=O)NCCc1c[nH]c2ccc(O)cc12 [NAS, N-acetyl-serotonin]
mechanical and cold allodynia ([3]; 100 μg/kg/h i.t. infusion 14 days): significantly reduced mechanical and cold allodynia; also recorded: significantly reduces nerve-injury evoked mechanical and cold allodynia | thermal hyperalgesia [4]: significantly reduces thermal hyperalgesia | total biopterin levels in L4/5 DRGs [5]: reduced biopterin levels; also recorded: significantly reduces total biopterin levels | overt adverse effects [6]: without overt adverse effects

C=C[C@@]1(C)CC(=O)[C@]2(O)[C@@]3(C)[C@@H](O)CCC(C)(C)[C@@H]3[C@H](O)[C@H](OC(C)=O)[C@@]2(C)O1 [forskolin]
biopterin increase in whole blood ([7]; homozygous carriers of the haplotype): 20% | biopterin increase in whole blood ([7]; non-carriers): about 60%

Nc1nc2ncc([C@H](O)[C@H](O)CO)nc2c(=O)[nH]1 [neopterin]
mechanical and thermal pain sensitivity ([1]; naïve rats, i.t. 10 μg, 10 μl): had no effect on mechanical and thermal pain sensitivity; also recorded: had no significant effect
